Data published in patent US20120164104A1, “Composition and Methods of Treating Viral Infections and Viral Induced Tumors” (Chimerix, Inc., priority 2009, published 2012).
Entries after “also recorded” stand apart in the source; their conditions may differ. Like-named read-outs stand apart in the source and are kept apart here.

Assays:
JCV Mad-4 = assay: JCV VP1 late gene expression in COS-7 cells (immunofluorescence); type: cell-based; settings: 7 d.p.i.
Source text: FIG. 16 illustrates the effect of increasing concentrations of CMX001 on expression of JCV proteins. Indirect immunofluorescence of JCV-infected COS-7 cells treated with indicated concentrations of CMX001, fixed 7 d.p.i. and stained with rabbit anti-VP1 serum (red) for visualization of the late capsid protein VP1 and with Höchst 33342 dye to show DNA (blue). The merged pictures are shown in the right panel.
Cells were fixed with 4% p-formaldehyde (PFA) in phosphate-buffered saline, pH6.8 (PBS) at room temperature for 20 min and permeabilized with 0.2% Triton X-100 in PBS at room temperature for 10 min. After washing twice with PBS at room temperature for 5 min, PFA was quenched with 0.5 M NH4Cl in PBS at room temperature for 7 min followed washing twice with PBS at room temperature for 5 min. Blocking of unspecific binding sites was done with 3% milk in PBS at 37° C. for 15 min. Primary antibody (rabbit anti-VP1 1:300 in 3% milk PBS) was incubated at 37° C. for 45-60 min. Cells were washed twice with PBS on a shaker at room temperature for 5 min. Secondary antibody (chicken anti-rabbit Cy3 1:2000) and 5 μg/ml Höchst 33342 dye to stain DNA was given to the cells then incubated at 37° C. for 45-60 min. Cells were washed twice with PBS as before. Coverslips were mounted in NPropylgallat. […]

RPTECs = assay: Inspection of RPTECs by phase contrast microscopy; type: cell-based, human; settings: 3 day exposure to CMX001 0.31 μM
BKV(Dunlop) = assay: Extracellular BKV load in supernatants of BKV-infected RPTECs (qPCR); type: cell-based
Experimental: For FIG. 1(a), RPTEC supernatants were harvested 72 h p.i. i.e. 70 h post start of treatment with indicated CMX001 concentrations. BKV load was measured by […] and input virus subtracted. DNA load in untreated cells (1.05E+09 Geq/ml) was set as 100%.
FIG. 5 illustrates the influence of CMX001 0.31 μM on BKV extracellular BKV load. […] Supernatants from CMX001-treated and untreated BKV-infected RPTECs were harvested at indicated timepoints after infection and BKV load measured by qPCR. Data are presented as BKV load in Geq/ml.
For FIG. […] Supernatants were harvested 72 h p.i. and extracellular BKV load measured by qPCR. Data are presented in percent of untreated cells set at 100%.
Primary human renal proximal tubule epithelial cells (RPTECs), BKV(Dunlop) and all methods as previously described by Bernhoff et al (See Bernhoff et al., Cidofovir inhibits polyomavirus BK replication in human renal tubular cells downstream of viral early gene expression, Am J Transplant 8, 1413-1422 (2008).) Only one exception, quantitative PCR (qPCR) to quantify intracellular or extracellular BKV DNA load was performed with a different primer/probe set also targeting the LTag gene (See Hirsch, et al., J. Prospective study of polyomavirus type BK replication and nephropathy in renal-transplant recipients, N Engl J. Med., 347, 488-496 (2002)). Before each experiment, CMX001 was freshly dissolved to 1 mg/ml in methanol/water/ammonium hydroxide (50/50/2). It was further diluted in RPTEC growth medium.
To investigate the effect of CMX001 on BKV progeny, increasing concentrations of CMX001 were added 2 h p.i. and supernatants harvested at 72 h p.i. It was observed that CMX001 reduced the extracellular BKV load in a concentration dependent manner (See FIG. 1 a). […] With CMX001 0.31 uM an approximately 60% decrease in BKV agnoprotein expressing cells was seen. The number of cells expressing LTag was less reduced but the signal intensity was lower than in untreated cells. […] The conclusion is that CMX001 reduced the expression of early and late BKV proteins and the production of extracellular progeny but also seemed to affect the proliferation rate of RPTECs at higher concentrations.

EBV = assay: CMX001 in human patients with EBV-associated PTLD; type: in vivo; settings: for EBV viral load: heart transplant recipient
Source text: The first patient is a patient with a history of sickle cell anemia developed EBV-associated intracranial post-transplant lymphoproliferative disorder (PTLD). EBV was positive in the plasma (7 Dec. and 14 Dec. 2010) and brain biopsies were consistent with PTLD. In early December, the patient presented with a 3 day history of persistent headache, nausea, vomiting, and diarrhea. […] The patient was admitted to PICU. High intracranial pressure, repetitive seizures associated with apnea led to intubation and emergency request for CMX001. The use of CMX001 in this patient with EBV-associated PTLD is ongoing since […].
The second patient was a heart transplant recipient with EBV-associated PTLD. The patient acquired a primary EBV infection post-operatively. […] The clinical condition continued to destabilize with what was presumed to be EBV-associated encephalitis with EBV detected in the CSF, clinical and EEG-correlated seizure activity and decreased responsiveness and changes in mental status. At the time of request for CMX001, the patient was on mechanical ventilation, had evidence of both pneumonia and PTLD of their lungs, evidence of seizure activity with clinical criteria for encephalopathy being present. The patient received their first dose of CMX001, 20 mg (approximately 3.3 mg/kg) on 3 Mar. 2010, and their second dose on 7 Mar. […] The patient continued to show evidence of progressive neurologic injury. The parents withdrew support on the day following their second dose of CMX001.

COS-7 cells = assay: DNA replication of uninfected COS-7 cells (BrdU assay); type: cell-based; settings: Chlorocebus aethiops
Experimental: FIG. 14 illustrates the effect of increasing concentrations of CMX001 on replication of COS-7 cells. DNA replication was determined by BrdU incorporation. Medium with indicated CMX001 concentrations was added to COS-7 cells and absorbance measured 72 h post seeding. Absorbance for untreated cells was set as 100%. DNA synthesis was quantified by the colorimetric measurement of BrdU incorporation into DNA in proliferating cells using the ‘Cell proliferation ELISA, BrdU’ kit (Roche). COS-7 cells were seeded in 96 well plates and CMX001 was added at indicated concentrations. Absorbance at 450 nm (sample) and at 650 nm (background) was determined 2 h after addition of the substrate.

CCCCCCCCCCCCCCCCOCCCOP(=O)(O)CO[C@H](CO)Cn1ccc(N)nc1=O [CMX001]
JCV VP1 signal by immunofluorescence (JCV Mad-4; CMX001 1.25 μM): significant reduction | JCV VP1 positive cells by immunofluorescence (JCV Mad-4; CMX001 5 μM): essentially no VP1 positive cells could be observed | signs of impaired viability (RPTECs): did not reveal any signs of impaired viability | IC90 (BKV(Dunlop); Betapolyomavirus hominis, Epithelial cell, primary human renal proximal tubule epithelial cells (conclusion), read-out: IC90 against BK virus replication): 0.31 µM | extracellular BKV load (timecourse) (BKV(Dunlop); CMX001 0.31 μM, 48 h p.i.): only input virus could be detected; also recorded: only input was detectable | BKV load in supernatants from treated cells (BKV(Dunlop); CMX001 0.31 μM, 72 h p.i.): 1.13×10^8 Geq/ml | BKV load in supernatants lower than in untreated cells (timecourse) (BKV(Dunlop); CMX001 0.31 μM, 72 h p.i.): 84% | IC90 (BKV(Dunlop); RPTEC, RPTECs, added 2 h p.i., harvested 72 h p.i., viral input subtracted, read-out: inhibitory concentration IC90 (extracellular BKV load)): 0.31 µM | effect of pre-treatment on BKV load 72 h p.i. (BKV(Dunlop); RPTECs treated for 4 hours, ending 20 hours before infection): hardly any effect; also recorded: did not inhibit BKV replication | reduction of viral load by pre-treatment (BKV(Dunlop); RPTECs treated for 23 hours until one hour before infection, 72 h p.i.): about 50% | EBV viral load (EBV; 3 Mar. 2010 (day of first dose, 20 mg)): 267,338 copies/mL | EBV viral load (EBV; 7 Mar. 2010 (day of second dose)): 47,427 copies/mL | EBV in the plasma (EBV; patient on CMX001): remains negative | tolerability (EBV; patient, 4 mg/kg twice weekly): tolerated CMX001 well | clinical outcome (EBV; patient, intracranial PTLD, 4 mg/kg twice weekly): clinical improvement of their signs and symptoms of disease as well as stabilization if not reduction of their intracranial mass | IC50 (COS-7 cells): ~0.6 µM
